US20230159469A1, “NOVEL PHTHALAZINE DERIVATIVE HAVING ECTONUCLOEOTIDE PYROPHOSPHATASE/PHOSPHODIESTE RASE INHIBITORY ACTIVITY, AND USE THEREOF” (TXINNO BIOSCIENCE INC., priority 2020, published 2023)
Structures can show the parent of a compound that is named as a salt.

These compounds were tested against T1, human recombinant ENPP1 (Homo sapiens, UniProt P22413) (assay: ENPP1 enzyme assay with cGAMP substrate (AMP-Glo luminescence)). Details: human recombinant ENPP1 3 ng/reaction, cGAMP 5 μM, 37° C. 90 minutes, read-out: Enzymatic activity (ENPP1 IC50).
T1 construct: purchased R & D systems
T1 sequence (P22413 1-925): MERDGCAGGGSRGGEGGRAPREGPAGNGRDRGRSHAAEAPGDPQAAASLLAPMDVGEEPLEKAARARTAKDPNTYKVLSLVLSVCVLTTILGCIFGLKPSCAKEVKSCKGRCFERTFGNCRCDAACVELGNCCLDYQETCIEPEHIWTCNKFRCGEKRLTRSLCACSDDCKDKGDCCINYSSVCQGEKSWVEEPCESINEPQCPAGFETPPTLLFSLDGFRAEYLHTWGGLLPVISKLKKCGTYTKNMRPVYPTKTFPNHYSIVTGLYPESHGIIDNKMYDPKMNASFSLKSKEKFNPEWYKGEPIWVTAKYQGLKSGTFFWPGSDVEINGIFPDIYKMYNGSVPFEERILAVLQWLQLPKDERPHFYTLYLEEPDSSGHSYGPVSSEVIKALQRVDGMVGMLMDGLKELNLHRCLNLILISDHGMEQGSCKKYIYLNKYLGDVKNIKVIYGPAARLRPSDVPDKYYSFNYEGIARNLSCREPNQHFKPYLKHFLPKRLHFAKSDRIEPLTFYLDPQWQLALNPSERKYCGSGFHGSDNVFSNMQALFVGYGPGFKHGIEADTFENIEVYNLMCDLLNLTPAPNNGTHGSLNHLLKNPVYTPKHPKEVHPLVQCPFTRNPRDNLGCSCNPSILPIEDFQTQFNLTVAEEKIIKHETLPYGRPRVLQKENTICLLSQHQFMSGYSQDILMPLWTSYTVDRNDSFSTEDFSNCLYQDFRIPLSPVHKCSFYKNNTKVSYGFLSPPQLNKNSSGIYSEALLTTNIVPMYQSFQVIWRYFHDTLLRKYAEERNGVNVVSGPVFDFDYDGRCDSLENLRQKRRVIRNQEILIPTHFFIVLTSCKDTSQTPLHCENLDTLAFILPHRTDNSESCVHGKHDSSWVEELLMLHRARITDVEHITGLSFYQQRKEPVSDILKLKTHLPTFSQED
Assay type: biochemical
How it was run: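 Human ENPP1 hydrolysis of 5 μM cGAMP was run for 90 min at 37° C in 50 mM Tris pH 8.5, 250 mM NaCl, 0.5 mM CaCl2, 1 μM ZnCl2, 5% glycerol, 1% DMSO. AMP product was quantified by AMP-Glo luminescence; IC50 came from 3-parameter fits of % residual activity, averaged over at least two runs.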

SMILES | IC50
O=c1[nH]nc(-c2ccc3c(c2)CCNC3)c2ccccc12 [Compound No. 55, 4-(1,2,3,4-tetrahydroisoquinolin-6-yl)phthalazin-1(2H)-one hydrochloride] | < 1 µM
COc1cc2c(Cc3cccc(N)c3)n[nH]c(=O)c2cc1OC [Example 156, 4-(3-aminobenzyl)-6,7-dimethoxyphthalazin-1(2H)-one hydrochloride] | > 10 µM
COc1cc2c(Cc3ccc(N(C)S(=O)(=O)NC(=O)OC(C)(C)C)cc3)n[nH]c(=O)c2cc1OC [Example 174, tert-butyl N-(4-((6,7-dimethoxy-4-oxo-3,4-dihydrophthalazin-1-yl)methyl)phenyl)-N-methylsulfamoyl carbamate] | > 10 µM
COc1cc2c(-c3ccc4c(c3)CCN(C(=O)OC(C)(C)C)C4)n[nH]c(=O)c2cc1OC [Compound No. 28, tert-butyl 6-(6,7-dimethoxy-4-oxo-3,4-dihydrophthalazin-1-yl)-3,4-dihydroisoquinoline-2(1H)-carboxylate] | > 10 µM
O=c1[nH]nc(Cc2ccccc2)c2ccccc12 [Compound No. 143, 4-benzylphthalazin-1(2H)-one] | > 10 µM
COc1ccc2c(-c3ccc(CNS(N)(=O)=O)cc3)nn(C)c(=O)c2c1 [Compound No. 107, N-(4-(6-methoxy-3-methyl-4-oxo-3,4-dihydrophthalazin-1-yl)benzyl)sulfamide hydrochloride] | > 10 µM
NS(=O)(=O)NCCC1CCN(c2n[nH]c(=O)c3ccccc23)CC1 [Compound No. 142, N-(2-(1-(4-oxo-3,4-dihydrophthalazin-1-yl)piperidin-4-yl)ethyl)sulfamide trifluoroacetic acid] | > 10 µM
Cn1nc(Cc2ccc(NC(=O)OC(C)(C)C)cc2)c2ccccc2c1=O [Compound No. 148, tert-butyl (4-((3-methyl-4-oxo-3,4-dihydrophthalazin-1-yl)methyl)phenyl)carbamate] | > 10 µM
COc1cc2c(-c3ccc4c(c3)CCN(C(=O)OC(C)(C)C)C4)nn(C)c(=O)c2cc1OC [Compound No. 29, tert-butyl-6-(6,7-dimethoxy-3-methyl-4-oxo-3,4-dihydrophthalazin-1-yl)-3,4-dihydroisoquinoline-2(1H)-carboxylate] | > 10 µM

Second part, the compound after the results:

IC50 | SMILES
1 to 10 µM | NS(=O)(=O)NCc1ccc(-c2nn(Cc3ccc(F)cc3)c(=O)c3ccccc23)cc1 [Compound No. 102, N-(4-(3-(4-fluorobenzyl)-4-oxo-3,4-dihydrophthalazin-1-yl)benzyl)sulfamide hydrochloride]
> 10 µM | COc1cc2c(-c3ccc(CN(C)S(N)(=O)=O)c(C(F)(F)F)c3)n[nH]c(=O)c2cc1OC [Compound No. 120, hydrochloride]
1 to 10 µM | COc1ccc2c(=O)n(C)nc(-c3ccc(CN)cc3)c2c1 [Compound No. 44, (4-(7-methoxy-3-methyl-4-oxo-3,4-dihydrophthalazin-1-yl)phenyl)methanaminium chloride]
< 1 µM | COc1cc2c(Cc3ccc(NS(N)(=O)=O)cc3)nn(C)c(=O)c2cc1OC [Example 183, N-(4-((6,7-dimethoxy-3-methyl-4-oxo-3,4-dihydrophthalazin-1-yl)methyl)phenyl)sulfamide hydrochloride]
< 1 µM | COc1cc2c(-c3ccc(CNS(N)(=O)=O)cc3)n[nH]c(=O)c2cc1OC [Compound No. 104, N-(4-(6,7-dimethoxy-4-oxo-3,4-dihydrophthalazin-1-yl)benzyl)sulfamide hydrochloride]
1 to 10 µM | COc1cc2c(-c3ccc(CN(C)S(N)(=O)=O)cc3F)n[nH]c(=O)c2cc1OC [Compound No. 114, N-(4-(6,7-dimethoxy-4-oxo-3,4-dihydrophthalazin-1-yl)-3-fluorobenzyl)-N-methyl sulfamide hydrochloride]
< 1 µM | Cn1nc(-c2ccc(CNS(N)(=O)=O)cc2)c2ccccc2c1=O [Compound No. 97, N-(4-(3-methyl-4-oxo-3,4-dihydrophthalazin-1-yl)benzyl)sulfamide hydrochloride]
1 to 10 µM | Cn1nc(-c2ccc3c(c2)CCNC3)c2ccccc2c1=O [Compound No. 56, 2-methyl-4-(1,2,3,4-tetrahydroisoquinolin-6-yl)phthalazin-1(2H)-one hydrochloride]
< 1 µM | COc1ccc2c(=O)[nH]nc(-c3ccc(CN)cc3)c2c1 [Compound No. 43, 4-(4-(aminomethyl)phenyl)-6-methoxyphthalazin-1(2H)-one hydrochloride]
